In patent US20250090441A1, “ANTI-CARIES PEPTIDES WITH ANTIMICROBIAL AND REMINERALIZING PROPERTIES AND METHODS THEREOF” (THE UNIVERSITY OF HONG KONG, priority 2023, published 2025):
In brackets after ≈: the same amount, converted by molar mass. Where a SMILES comes first, the peptide text is derived from it.

Experiments:
[1] = tested on: Streptococcus mutans, UA159; assay: MIC and MBC/MFC test; format: cell-based
Method: (§1) The antimicrobial properties of synthesized peptides against bacteria and fungi were evaluated using minimum inhibitory concentration (MIC) and minimum bactericidal/fungicidal concentration (MBC/MFC) tests (Wiegand et al. 2008). The tested species include Streptococcus mutans, UA159; Lacticaseibacillus casei, American Type Culture Collection (ATCC) 334; and Candida albicans, ATCC 90028. A 10 μL aliquot of bacterial culture (10^6 CFU/mL) in brain heart infusion (BHI) broth was added to 100 μL serial two-fold dilutions of experimental solutions. The optical density values at 660 nm were measured after 18 h of incubation. To determine the MBC, 10 μL of bacterial culture was taken from the well of MIC, and wells before and after the well of MIC, and transferred to blood agar. The test protocol for fungi was similar: the culture medium was a Roswell Park Memorial Institute (RPMI) 1640 Medium, the absorbance was measured at 520 nm, and Sabouraud dextrose agar was used for the MFC test. Chlorhexidine and medium were used as the positive and negative controls.

[2] = tested on: Lacticaseibacillus casei, ATCC 334; assay: MIC and MBC/MFC test; format: cell-based
Method: as §1

[3] = tested on: Human gingival fibroblast (HGF-1) cells; assay: Biocompatibility, cytotoxicity by Cell Counting Kit-8 Assay; format: cell-based
Method: The biocompatibility of GAPI was evaluated by cytotoxicity assay using Cell Counting Kit-8 Assay (CCK-8, Apexbio, MA, USA) (Zhang et al. 2019). Human gingival fibroblast (HGF-1, Otwo Biotech Inc., China) cells (1×10^5/mL) were cultured and treated with GAPI. The cells cultured with the only medium were negative controls. The optical density values indicating the number of viable cells was measured at 450 nm after 24 h of incubation.

[4] = Effect on hard tissue, biofilm remineralization cycling model (micro-CT, FTIR); conditions: carious dentine, 160 μM GAPI
Source text: Dentine slices, 2 mm thick, were cut from sound extracted third molars. Ultra-fine 4000-grit sandpaper was used to polish these slices. Slices with defects were eliminated based on a stereomicroscope observation. A total of forty dentine slices were selected. Each slice was separated into two blocks and assigned to two groups. Nail varnish was used to coat half of the blocks as an internal control. S. mutans American Type Culture Collection 35668 was utilized in the present study. All the dentine blocks were placed into S. mutans culture (10^8 cells/mL) in a brain-heart infusion (BHI) broth containing 5% glucose to generate artificial caries. After a 3-day anaerobic culture at 37° C., the depth of the caries lesion surface was around 96 μm, which was observed using micro-computed tomography (micro-CT).
Two blocks from the same slice were assigned to the GAPI group (160 μM GAPI) and control group (deionized water) separately. All the blocks underwent a biochemical model involving chemical remineralization and an S. mutans biofilm challenge for seven days. The remineralization solution (pH 7.0) consisted of 1.5 mm calcium chloride, 150 mm potassium chloride, 0.9 mm potassium dihydrogen phosphate, and 20 mm 4-(2-hydroxyethyl)-1-piperazineethanesulfonic acid. The cycling process included 8 h of immersion in the remineralization solution and 16 h of immersion in an S. mutans biofilm medium.
Micro-CT (SkyScan 1272, Antwerp, Belgium) was employed to evaluate the lesion depths and mineral losses (n=8 for each group). The X-ray source parameters were set at an 80 kV voltage and 100 μA current with an image pixel size of 10 μm. Moreover, two standard mineral cylindrical phantoms (Bruker, Kontich, Belgium) with mineral density values (MDVs, gHApcm^−3) of 0.25 gHApcm^−3 and 0.75 gHApcm^−3 were scanned to calibrate the blocks' greyscales. The NRecon reconstruction software (Version 1.7.4.6, SkyScan, Antwerp, Belgium) was utilized to reconstruct the scanning images. The CTAn data analysis software (CTAn version 1.20.3.0, Skyscan NV, Kontich, Belgium) was employed to analyze the cross-sectional images. The lesion depths were measured, and the images' greyscale values were calibrated. Subsequently, the demineralized and control areas were calculated into the MDV for each block. The mineral loss was determined as the difference between the MDV of the control and the MDV of the demineralized area (Niu et al., 2022).
FTIR (Spectrum Two, PerkinElmer, Waltham, MA, USA) was employed to examine the changes in the dentin's chemical structures (n=8 for each group). […] The ratio of the HPO4^2− to amide I absorbance area represented the degree of demineralization in the dentin.

[5] = Streptococcus mutans (UA159), μM
[6] = 7 days cycling, micro-CT, n = 8

CC(C)[C@@H]1NC(=O)[C@H](CCCN=C(N)N)NC(=O)[C@H](Cc2ccccc2)NC(=O)[C@@H](NC(=O)[C@H](Cc2c[nH]c3ccccc23)NC(=O)[C@H](CCCN=C(N)N)NC(=O)[C@H](CCCN=C(N)N)NC(=O)c2cc(O)c(O)c(O)c2)CSSC[C@@H](C(=O)N[C@@H](CCCN=C(N)N)C(=O)O)NC(=O)[C@H](CCCCN)NC(=O)[C@H](CCCN=C(N)N)NC(=O)[C@H](Cc2ccc(O)cc2)NC(=O)[C@@H]2CSSC[C@H](NC1=O)C(=O)N[C@@H](Cc1ccc(O)cc1)C(=O)N[C@@H](CCCN=C(N)N)C(=O)NCC(=O)N[C@@H](Cc1ccccc1)C(=O)N2 [GAPI, Gallic-Acid-Polyphemusin-I] (HELM PEPTIDE1{[O=C(c1cc(O)c(O)c(O)c1)[*:2]].R.R.W.C.F.R.V.C.Y.R.G.F.C.Y.R.K.C.R}$PEPTIDE1,PEPTIDE1,5:R3-18:R3|PEPTIDE1,PEPTIDE1,9:R3-14:R3$$$V2.0)
minimum inhibitory concentration ([1]; Streptococcus mutans): 40 µM (≈ 104 µg/mL) | MBC/MFC [1, 5]: 80 | MIC [1, 5]: 40 | minimum inhibitory concentration [2]: 40 µM (≈ 104 µg/mL) | MBC/MFC ([2]; μM): 160 | MIC ([2]; μM): 40 | optical density values (450 nm, viable cells) versus negative control ([3]; 80, 160, 320 and 640 μM, HGF-1 cells, 24 h): no significant difference | cytotoxicity to HGF-1 cells ([3]; CCK-8, 24 h): low cytotoxicity | lesion depths [4]: 151±18 μm | Hydrogen phosphate-to-amide I ratio ([4]; 7 days cycling, FTIR, n = 8): 2.92±0.82 | Lesion depth [4, 6]: 151 ± 18 μm | Mineral loss [4, 6]: 0.91±0.07 gHAcm^−3
